Laboratory results as given in ChEMBL document CHEMBL1201862, “PubChem BioAssay data set” (2004).
Active and inactive are the calls of the source.

What was measured:
[1] = target: T1, Heat shock factor protein 1 (Mus musculus, UniProt P38532); experiment: inhibition of MG132-induced HSE-luciferase signal, confirmation, cell-based, NIH3T3, luminescence, dose retest (AID 2382); type: functional;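 note: NIH3T3 fibroblasts with HSF1-driven luciferase reporter stressed by proteasome inhibitor MG132; luminescence from HSF1-driven luciferase expression after 8 hours of MG132 stress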
T1 sequence (P38532 whole entry): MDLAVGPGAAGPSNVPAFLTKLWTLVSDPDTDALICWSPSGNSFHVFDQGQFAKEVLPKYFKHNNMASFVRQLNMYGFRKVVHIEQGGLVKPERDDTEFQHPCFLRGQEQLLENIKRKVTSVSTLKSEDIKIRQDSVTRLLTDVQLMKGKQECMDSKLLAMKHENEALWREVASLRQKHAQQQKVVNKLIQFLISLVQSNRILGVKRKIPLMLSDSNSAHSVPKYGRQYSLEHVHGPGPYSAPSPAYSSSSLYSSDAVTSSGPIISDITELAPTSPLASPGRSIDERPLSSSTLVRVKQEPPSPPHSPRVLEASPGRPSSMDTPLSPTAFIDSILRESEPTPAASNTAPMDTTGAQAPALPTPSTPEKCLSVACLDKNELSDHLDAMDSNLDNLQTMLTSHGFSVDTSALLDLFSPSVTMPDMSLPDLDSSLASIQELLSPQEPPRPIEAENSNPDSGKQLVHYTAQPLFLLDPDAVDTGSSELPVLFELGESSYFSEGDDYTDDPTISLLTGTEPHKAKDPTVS

Insulin-degrading enzyme [2] = target: T2, Insulin-degrading enzyme (Homo sapiens, UniProt P14735); experiment: activators of recombinant IDE enzyme, dose response, counter-screen for IDE activator project, biochemical, fluorescence polarization (AID 588681)
T2 sequence (P14735 whole entry): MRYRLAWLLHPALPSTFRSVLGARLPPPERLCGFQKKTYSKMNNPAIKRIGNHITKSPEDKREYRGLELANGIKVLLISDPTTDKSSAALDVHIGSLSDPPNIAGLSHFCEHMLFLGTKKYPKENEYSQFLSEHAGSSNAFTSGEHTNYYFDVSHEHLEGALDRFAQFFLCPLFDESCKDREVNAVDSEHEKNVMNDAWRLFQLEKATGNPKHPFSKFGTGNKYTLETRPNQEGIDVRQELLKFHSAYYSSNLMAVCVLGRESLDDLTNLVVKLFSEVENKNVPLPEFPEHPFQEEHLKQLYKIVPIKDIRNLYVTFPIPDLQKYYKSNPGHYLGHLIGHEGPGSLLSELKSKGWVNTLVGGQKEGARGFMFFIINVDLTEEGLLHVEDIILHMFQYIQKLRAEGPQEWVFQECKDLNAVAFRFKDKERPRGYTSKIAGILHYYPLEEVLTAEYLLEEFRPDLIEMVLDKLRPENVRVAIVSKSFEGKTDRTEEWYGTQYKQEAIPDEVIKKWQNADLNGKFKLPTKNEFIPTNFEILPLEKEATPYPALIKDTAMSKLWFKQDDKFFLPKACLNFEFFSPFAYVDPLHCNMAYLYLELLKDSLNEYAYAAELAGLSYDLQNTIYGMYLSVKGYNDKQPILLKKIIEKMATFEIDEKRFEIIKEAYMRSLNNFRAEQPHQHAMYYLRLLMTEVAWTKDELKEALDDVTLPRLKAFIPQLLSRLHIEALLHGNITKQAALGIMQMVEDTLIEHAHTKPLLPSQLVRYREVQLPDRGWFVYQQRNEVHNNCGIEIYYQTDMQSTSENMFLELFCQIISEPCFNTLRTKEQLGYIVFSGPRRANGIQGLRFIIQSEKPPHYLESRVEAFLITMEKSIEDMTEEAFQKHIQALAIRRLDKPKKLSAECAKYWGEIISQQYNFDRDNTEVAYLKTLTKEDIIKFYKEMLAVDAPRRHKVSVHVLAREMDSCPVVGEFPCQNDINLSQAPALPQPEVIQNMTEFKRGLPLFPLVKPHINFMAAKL

Insulin-degrading enzyme [3] = target: T2, Insulin-degrading enzyme; experiment: activators of endogenous IDE in HEK cells, dose response, cell-based, fluorescence polarization (AID 588439); type: functional
HEK293 [4] = experiment: HEK cell cytotoxicity by LDH release, dose response, cytotoxicity control for IDE activator project, fluorescence, HEK cells (AID 588440); type: functional, cell-based; conditions: Homo sapiens;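 note: cytotoxicity by LDH release measuring loss of membrane integrity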
HEK293 [5] = experiment: optical interference in Abeta FP readout, dose response, artefact control for IDE activator project, biochemical, fluorescence polarization (AID 588442); type: functional, cell-based; conditions: Homo sapiens
CHO = experiment: cytotoxicity in TLR9-MyD88 CHO cells, dose response, cytotoxicity control for TLR9-MyD88 binding inhibitor project, cell-based, luminescence (AID 588339); type: functional, hamster; conditions: Cricetulus griseus;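 note: CHO cells stably coexpressing TLR9 and MyD88 fusions from primary screen; compound exposure lasted 48 hours before viability readout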
[6] = target: UDP-galactopyranose mutase (Mycobacterium tuberculosis, UniProt P9WIQ1); experiment: Inhibitors of Mycobacterium tuberculosis UDP-galactopyranose mutase (UGM) enzyme Measured in Biochemical System Using Plate Reader - 2105-02_Inhibitor_Dose_CherryPick_Activity. [Related pubchem assays (depositor defined):AID504439]
UDP-galactopyranose mutase, sequence (P9WIQ1 whole entry): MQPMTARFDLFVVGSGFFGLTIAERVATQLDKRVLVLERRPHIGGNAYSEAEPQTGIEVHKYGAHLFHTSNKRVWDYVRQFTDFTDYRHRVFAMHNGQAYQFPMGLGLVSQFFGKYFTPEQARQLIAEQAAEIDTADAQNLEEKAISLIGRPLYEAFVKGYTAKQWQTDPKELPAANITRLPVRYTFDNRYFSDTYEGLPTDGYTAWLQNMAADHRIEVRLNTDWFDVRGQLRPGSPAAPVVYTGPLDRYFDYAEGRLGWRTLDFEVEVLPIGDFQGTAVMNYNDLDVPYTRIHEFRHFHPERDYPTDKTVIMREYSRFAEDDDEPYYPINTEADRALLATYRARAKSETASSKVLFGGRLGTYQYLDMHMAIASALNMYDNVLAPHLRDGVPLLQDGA

Beta Lactamase = Beta Lactamase (Pseudomonas aeruginosa, UniProt Q932Y6); experiment: beta-lactamase reporter inhibitor potency, dose response, artefact control for TLR9-MyD88 binding inhibitor project, BLA reporter cells, FRET fluorescence (AID 588341); type: cell-based;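 note: cell based assay in CHO-K1 cells stably expressing beta-lactamase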
Beta Lactamase, sequence (Q932Y6 whole entry): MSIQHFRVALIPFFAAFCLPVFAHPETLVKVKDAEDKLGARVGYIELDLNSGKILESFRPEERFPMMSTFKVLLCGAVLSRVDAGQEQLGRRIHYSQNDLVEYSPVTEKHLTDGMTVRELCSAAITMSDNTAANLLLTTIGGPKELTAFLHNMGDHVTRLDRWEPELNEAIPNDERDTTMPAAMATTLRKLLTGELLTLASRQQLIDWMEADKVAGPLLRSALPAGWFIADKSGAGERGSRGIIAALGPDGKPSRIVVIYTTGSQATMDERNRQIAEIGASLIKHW

[7] = target: T3, Corticotropin-releasing factor receptor 2/Corticotropin-releasing factor-binding protein (Homo sapiens, UniProt P24387+Q13324); experiment: activators of CRF receptor 2 with binding protein – uHTS hits, confirmation (AID 602473); type: functional; conditions: read-out: EC50_Mean
T3 sequence (Q13324 whole entry): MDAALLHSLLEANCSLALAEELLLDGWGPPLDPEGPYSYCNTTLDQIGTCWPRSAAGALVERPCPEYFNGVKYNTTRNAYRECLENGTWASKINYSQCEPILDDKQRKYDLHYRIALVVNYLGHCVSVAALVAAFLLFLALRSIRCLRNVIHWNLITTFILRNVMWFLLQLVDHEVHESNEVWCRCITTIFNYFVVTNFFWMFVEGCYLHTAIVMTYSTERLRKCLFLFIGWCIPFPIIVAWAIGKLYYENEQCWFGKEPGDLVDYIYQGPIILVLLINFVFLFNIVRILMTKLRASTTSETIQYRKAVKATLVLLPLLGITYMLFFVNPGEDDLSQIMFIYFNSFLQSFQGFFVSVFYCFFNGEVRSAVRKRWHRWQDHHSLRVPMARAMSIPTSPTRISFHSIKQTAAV
T3 sequence (P24387 whole entry): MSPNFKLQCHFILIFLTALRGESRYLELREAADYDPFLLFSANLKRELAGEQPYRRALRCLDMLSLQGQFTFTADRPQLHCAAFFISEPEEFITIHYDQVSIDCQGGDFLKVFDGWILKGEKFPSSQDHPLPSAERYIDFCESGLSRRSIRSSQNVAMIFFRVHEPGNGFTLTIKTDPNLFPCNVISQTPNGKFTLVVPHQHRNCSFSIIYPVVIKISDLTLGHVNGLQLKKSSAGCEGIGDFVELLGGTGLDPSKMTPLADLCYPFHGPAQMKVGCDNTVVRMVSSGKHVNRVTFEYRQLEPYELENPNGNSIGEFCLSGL

[8] = test system: Streptococcus sp. 'group A'; experiment: growth inhibition of control SK(-) GAS strain, dose response, counter-screen for streptokinase expression inhibitor project, luminescence, kanamycin, BacTiterGlo, confirmation (AID 1900); type: functional, organism-based
Streptococcus = experiment: Group A Streptococcus viability loss, dose response, counter-screen for streptokinase expression inhibitor project, luminescence, BacTiterGlo (AID 1915); type: functional, organism-based;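 note: potency for reduction of bacterial viability or growth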
[9] = THP-1 cell cytotoxicity, dose response, cytotoxicity control for non-replicating M. tuberculosis project (AID 489025); type: functional
cells = type: functional
H9c2 = experiment: cells; type: functional, cell-based; conditions: Rattus norvegicus, H9c2, Myocardium;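 note: confirmatory concentration-response retest of ultra-high-throughput screening hits for modulation of myocardial damage; cell death induced by hydrogen peroxide oxidative stress; compound pretreatment for 60 min then peroxide exposure for 2 h; potency is for protecting the cells against peroxide damage rather than for killing them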

COc1ccc(/C=C(\C#N)C(=O)Nc2cc(C)c(Cl)cc2OC)cc1O
EC50 [1]: > 195 µM (not active)
EC50 (Insulin-degrading enzyme [2]): > 54.7 µM (inactive)
EC50 (Insulin-degrading enzyme [3]): > 54.7 µM (inactive)
IC50 (HEK293 [4]): 12.6 µM (inactive)
EC50 (HEK293 [5]): > 55.9 µM (inactive)

O=C(NC1CCCCC1)c1cccc2c1C(=O)c1ccc(N3CCC(Cc4ccccc4)CC3)cc1S2(=O)=O
IC50 (CHO): > 49.7 µM (inactive)
AC50 [6]: 72.3 µM (active)
IC50 (Beta Lactamase): 3.87 µM (active)
EC50 [7]: 6.47 µM (active)

O=c1c(O)c(-c2cccs2)oc2ccc(Cl)cc12
EC50 [8]: 2.11 µM (active)
EC50 (Streptococcus): 7.38 µM (active)
CC50 [9]: > 40 µM (active)
IC50 (cells): 13.8 µM (active)
EC50 (Insulin-degrading enzyme [2]): > 54.7 µM (inactive)
EC50 (Insulin-degrading enzyme [3]): > 54.7 µM (inactive)
IC50 (H9c2): > 79 µM (inactive)
IC50 (HEK293 [4]): > 89.2 µM (inactive)
EC50 (HEK293 [5]): > 54.7 µM (inactive)

COCO/C=C(\NC(C)=O)c1ccccc1
EC50 (Insulin-degrading enzyme [2]): > 54.7 µM (inactive)
EC50 (Insulin-degrading enzyme [3]): > 54.7 µM (inactive)
IC50 (HEK293 [4]): > 89.3 µM (inactive)
EC50 (HEK293 [5]): > 56 µM (inactive)

Nc1ccc2c(C(F)(F)F)cc(=O)oc2c1
IC50 (CHO): > 49.7 µM (inactive)
IC50 (Beta Lactamase): 4.77 µM (active)
